Experimental data reported in PubChem BioAssay (NCI).
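GI50 is the concentration that inhibits growth by half. TGI: concentration producing complete growth inhibition.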

Tests used:
Experiment in all cases: NCI-60 cell line screen, 384-well format
786-0 renal = system: 786-0 renal
A498 renal = system: A498 renal
A549 NSCLC = system: A549 NSCLC
ACHN renal = system: ACHN renal
BT-549 breast = system: BT-549 breast
CAKI-1 renal = system: CAKI-1 renal
CCRF-CEM leukemia = system: CCRF-CEM leukemia
COLO 205 colon = system: COLO 205 colon
DU-145 prostate = system: DU-145 prostate
HCC-2998 colon = system: HCC-2998 colon
HCT-116 colon = system: HCT-116 colon
HCT-15 colon = system: HCT-15 colon
HL-60(TB) leukemia = system: HL-60(TB) leukemia
HOP-62 NSCLC = system: HOP-62 NSCLC
HOP-92 NSCLC = system: HOP-92 NSCLC
HT29 colon = system: HT29 colon
IGROV1 ovarian = system: IGROV1 ovarian
K-562 leukemia = system: K-562 leukemia
KM12 colon = system: KM12 colon
LOX IMVI melanoma = system: LOX IMVI melanoma
M14 melanoma = system: M14 melanoma
MALME-3M melanoma = system: MALME-3M melanoma
MCF7 breast = system: MCF7 breast
MDA-MB-231 breast = system: MDA-MB-231 breast
MDA-MB-435 melanoma = system: MDA-MB-435 melanoma
MDA-MB-468 breast = system: MDA-MB-468 breast
MOLT-4 leukemia = system: MOLT-4 leukemia
NCI-H226 lung = system: NCI-H226 lung
NCI-H23 lung = system: NCI-H23 lung
NCI-H322M lung = system: NCI-H322M lung
NCI-H460 NSCLC = system: NCI-H460 NSCLC
NCI-H522 lung = system: NCI-H522 lung
NCI/ADR-RES ovarian = system: NCI/ADR-RES ovarian
OVCAR-3 ovarian = system: OVCAR-3 ovarian
OVCAR-4 ovarian = system: OVCAR-4 ovarian
OVCAR-5 ovarian = system: OVCAR-5 ovarian
OVCAR-8 ovarian = system: OVCAR-8 ovarian
PC-3 prostate = system: PC-3 prostate
RPMI-8226 leukemia = system: RPMI-8226 leukemia
RXF 393 renal = system: RXF 393 renal
SF-268 CNS = system: SF-268 CNS
SF-295 CNS = system: SF-295 CNS
SF-539 CNS = system: SF-539 CNS
SK-MEL-2 melanoma = system: SK-MEL-2 melanoma
SK-MEL-28 melanoma = system: SK-MEL-28 melanoma
SK-MEL-5 melanoma = system: SK-MEL-5 melanoma
SK-OV-3 ovarian = system: SK-OV-3 ovarian
SN12C renal = system: SN12C renal
SNB-19 CNS = system: SNB-19 CNS
SR leukemia = system: SR leukemia
SW-620 colon = system: SW-620 colon
T-47D breast = system: T-47D breast
TK-10 renal = system: TK-10 renal
U251 glioblastoma = system: U251 glioblastoma
UACC-257 melanoma = system: UACC-257 melanoma
UACC-62 melanoma = system: UACC-62 melanoma
UO-31 renal = system: UO-31 renal

In the case of `C#Cc1c(F)ccc2cc(O)cc(-c3ncc4c(N5CC6CCC(C5)N6)nc(OC[C@@]56CCCN5C[C@H](F)C6)nc4c3F)c12`, the GI50 ([…]-0 renal) is reported as 12.4 µM, the TGI (786-0 renal) is reported as 24.9 µM and the GI50 (A498 renal) is reported as 10.5 µM. The TGI (A498 renal) was 22.4 µM, the GI50 (A549 NSCLC) was 5.54 µM and the TGI (A549 NSCLC) was 18.5 µM. For the same compound, the GI50 (ACHN renal) was 16.1 µM, the TGI (ACHN renal) was 29.7 µM and the GI50 (BT-549 breast) was 1.86 µM. It also gave a TGI (BT-549 breast) of 3.47 µM, a GI50 (CAKI-1 renal) of 10.9 µM and a TGI (CAKI-1 renal) of 22.9 µM. The GI50 (CCRF-CEM leukemia) was 1.25 µM, the TGI (CCRF-CEM leukemia) was 2.51 µM and the GI50 (COLO 205 colon) was 2.02 µM. For the same compound, the TGI (COLO 205 colon) was 3.94 µM, the GI50 (DU-145 prostate) was 13.7 µM and the TGI (DU-145 prostate) was 26.6 µM. For the same compound, the GI50 (HCC-2998 colon) was 0.303 µM, the TGI (HCC-2998 colon) was 1.67 µM and the GI50 (HCT-116 colon) was 1.37 µM. The TGI (HCT-116 colon) was 2.9 µM, the GI50 (HCT-15 colon) was 14.6 µM and the TGI (HCT-15 colon) was 27.8 µM. The GI50 (HL-60(TB) leukemia) was 1.87 µM, the TGI (HL-60(TB) leukemia) was 3.28 µM and the GI50 (HOP-62 NSCLC) was 0.853 µM. It also gave a TGI (HOP-62 NSCLC) of 10.2 µM, a GI50 (HOP-92 NSCLC) of 2.03 µM and a TGI (HOP-92 NSCLC) of 4.02 µM. The GI50 (HT29 colon) was 2.02 µM, the TGI (HT29 colon) was 4.05 µM and the GI50 (IGROV1 ovarian) was 12.4 µM. It also gave a TGI (IGROV1 ovarian) of 24.9 µM, a GI50 (K-562 leukemia) of 3.58 µM and a TGI (K-562 leukemia) of 9.9 µM. The GI50 (KM12 colon) was 2.07 µM, the TGI (KM12 colon) was 5.31 µM and the GI50 (LOX IMVI melanoma) was 2.23 µM. For the same compound, the TGI (LOX IMVI melanoma) was 3.7 µM, the GI50 (M14 melanoma) was 1.78 µM and the TGI (M14 melanoma) was 3.27 µM. For the same compound, the GI50 (MALME-3M melanoma) was 1.99 µM, the TGI (MALME-3M melanoma) was 3.43 µM and the GI50 (MCF7 breast) was 2.36 µM. For the same compound, the TGI (MCF7 breast) was 5.28 µM, the GI50 (MDA-MB-231 breast) was 1.94 µM and the TGI (MDA-MB-231 breast) was 4 µM. It also gave a GI50 (MDA-MB-435 melanoma) of 1.93 µM, a TGI (MDA-MB-435 melanoma) of 3.4 µM and a GI50 (MDA-MB-468 breast) of 2.08 µM. For the same compound, the TGI (MDA-MB-468 breast) was 3.55 µM, the GI50 (MOLT-4 leukemia) was 1.9 µM and the TGI (MOLT-4 leukemia) was 3.32 µM. The GI50 (NCI-H226 lung) was 10.7 µM, the TGI (NCI-H226 lung) was 22.6 µM and the GI50 (NCI-H23 lung) was 0.568 µM. For the same compound, the TGI (NCI-H23 lung) was 3.51 µM, the GI50 (NCI-H322M lung) was 6.12 µM and the TGI (NCI-H322M lung) was 19.3 µM. For the same compound, the GI50 (NCI-H460 NSCLC) was 1.51 µM, the TGI (NCI-H460 NSCLC) was 5.97 µM and the GI50 (NCI-H522 lung) was 1.83 µM. For the same compound, the TGI (NCI-H522 lung) was 3.63 µM, the GI50 (NCI/ADR-RES ovarian) was 85.7 µM and the TGI (NCI/ADR-RES ovarian) was over 100 µM. It also gave a GI50 (OVCAR-3 ovarian) of 4.45 µM, a TGI (OVCAR-3 ovarian) of 16.6 µM and a GI50 (OVCAR-4 ovarian) of 7.07 µM. It also gave a TGI (OVCAR-4 ovarian) of 19.7 µM, a GI50 (OVCAR-5 ovarian) of 3.14 µM and a TGI (OVCAR-5 ovarian) of 10.5 µM. The GI50 (OVCAR-8 ovarian) was 12.2 µM, the TGI (OVCAR-8 ovarian) was 24.7 µM and the GI50 (PC-3 prostate) was 9.06 µM. For the same compound, the TGI (PC-3 prostate) was 21 µM, the GI50 (RPMI-8226 leukemia) was 0.0774 µM and the TGI (RPMI-8226 leukemia) was 0.845 µM. It also gave a GI50 (RXF 393 renal) of 2.41 µM, a TGI (RXF 393 renal) of 6.19 µM and a GI50 (SF-268 CNS) of 1.99 µM. It also gave a TGI (SF-268 CNS) of 4.34 µM, a GI50 (SF-295 CNS) of 17.7 µM and a TGI (SF-295 CNS) of 31.6 µM. It also gave a GI50 (SF-539 CNS) of 1.92 µM, a TGI (SF-539 CNS) of 3.52 µM and a GI50 (SK-MEL-2 melanoma) of 1.85 µM. The TGI (SK-MEL-2 melanoma) was 3.26 µM, the GI50 (SK-MEL-28 melanoma) was 1.87 µM and the TGI (SK-MEL-28 melanoma) was 3.29 µM. The GI50 (SK-MEL-5 melanoma) was 1.67 µM, the TGI (SK-MEL-5 melanoma) was 3.66 µM and the GI50 (SK-OV-3 ovarian) was 2.36 µM. For the same compound, the TGI (SK-OV-3 ovarian) was 5.59 µM, the GI50 (SN12C renal) was 11.5 µM and the TGI (SN12C renal) was 23.7 µM. For the same compound, the GI50 (SNB-19 CNS) was 10.8 µM, the TGI (SNB-19 CNS) was 22.8 µM and the GI50 (SR leukemia) was 1.06 µM. The TGI (SR leukemia) was 2.25 µM, the GI50 (SW-620 colon) was 0.375 µM and the TGI (SW-620 colon) was 1.61 µM. It also gave a GI50 (T-47D breast) of 2.03 µM, a TGI (T-47D breast) of 5.32 µM and a GI50 (TK-10 renal) of 17.3 µM. It also gave a TGI (TK-10 renal) of 31.1 µM, a GI50 (U251 glioblastoma) of 1.83 µM and a TGI (U251 glioblastoma) of 3.36 µM. It also gave a GI50 (UACC-257 melanoma) of 1.77 µM, a TGI (UACC-257 melanoma) of 3.17 µM and a GI50 (UACC-62 melanoma) of 1.78 µM. It also gave a TGI (UACC-62 melanoma) of 3.18 µM, a GI50 (UO-31 renal) of 15.8 µM and a TGI (UO-31 renal) of 29.3 µM.
